Laboratory results: publication PMC2957562 (Bioorganic & medicinal chemistry letters, 2010)

Experiments:
HIV-1 Integrase [1] = biological target: T1, HIV-1 Integrase (Human immunodeficiency virus type 1 group M subtype B, UniProt P04585); test: HIV-1 integrase strand transfer inhibition; assay type: biochemical
HIV-1 Integrase [2] = biological target: T1, HIV-1 Integrase; test: HIV-1 integrase 3′-processing inhibition; assay type: biochemical

| Compound | IC50 (HIV-1 Integrase [1]) [µM] | IC50 (HIV-1 Integrase [2]) [µM] | Strand Transfer IC50 (HIV-1 Integrase [1]; in vitro, strand transfer step) |
| --- | --- | --- | --- |
| COc1ccc(/C=C2\C(=O)N(c3cccc(C)c3)N=C2C(F)(F)F)cc1OCc1ccc(F)cc1 [Compound 5b] | > 100 | > 100 |  |
| COc1ccc(/C=C2\C(=O)N(c3ccccc3)N=C2C(F)(F)F)cc1OCc1ccc(F)cc1 [Compound 5a] | > 100 | > 100 |  |
| COc1ccc(/C=C2\C(=O)N(c3cccc(Br)c3)N=C2C)cc1OCc1ccc(F)cc1 [Compound 6a] | > 100 | > 100 |  |
| COc1ccc(/C=C2\C(=O)N(c3ccc(I)cc3)N=C2C(F)(F)F)cc1OCc1ccc(F)cc1 [Compound 56l] |  | > 100 |  |
| COc1ccc(/C=C2\C(=O)N(c3ccc(NS(C)(=O)=O)cc3)N=C2C(F)(F)F)cc1OCc1ccc(F)cc1 [Compound 5n] | > 100 | > 100 |  |
| O=C1/C(=C\c2ccc(O)c(OCc3ccc(F)cc3)c2)C(C(F)(F)F)=NN1c1cccc(Br)c1 [Compound 4f] |  | > 100 |  |
| CCC(=O)OC1=NN(c2cccc(Br)c2)C(=O)/C1=C\c1ccc(OC)c(OCc2ccc(F)cc2)c1 [Compound 6g] |  | > 100 |  |
| COc1ccc(/C=C2\C(=O)N(c3cccc(Br)c3)N=C2C(F)(F)F)c(OC)c1OC [Compound 4b] | > 100 | > 100 |  |
| COc1ccc(/C=C2\C(=O)N(c3cccc(Br)c3)N=C2NC(=O)C(F)(F)F)cc1OCc1ccc(F)cc1 [Compound 6d] | > 100 | > 100 |  |
| CCC1=NN(c2cccc(Br)c2)C(=O)/C1=C\c1ccc(OC)c(OCc2ccc(F)cc2)c1 [Compound 6b] | > 100 | > 100 |  |
| COc1ccc(/C=C2\C(=O)N(c3nc4ccccc4s3)N=C2C(F)(F)F)cc1OCc1ccc(F)cc1 [Compound 5o] |  | > 100 |  |
| COc1ccc(/C=C2\C(=O)N(c3cccc(-c4ccccc4)c3)N=C2C(F)(F)F)cc1OCc1ccc(F)cc1 [Compound 5d] |  | > 100 |  |
| COc1ccc(/C=C2\C(=O)N(c3cccc(Br)c3)N=C2COC(C)=O)cc1OCc1ccc(F)cc1 [Compound 6f] |  | > 100 |  |
| O=C(O)C1=NN(c2cccc([N+](=O)[O-])c2)C(=O)/C1=C\c1ccc(OCc2ccc(F)cc2)c(O)c1 [Compound 14d] |  |  | single-digit micromolar |
| COc1ccc(/C=C2\C(=O)N(c3cccc(F)c3)N=C2C(F)(F)F)cc1OCc1ccc(F)cc1 [Compound 5f] |  | > 100 |  |
| COc1ccc(/C=C2\C(=O)N(c3cc(Cl)cc(Cl)c3)N=C2C(F)(F)F)cc1OCc1ccc(F)cc1 [Compound 5j] |  | > 100 |  |
| COc1ccc(/C=C2\C(=O)N(c3cccc(I)c3)N=C2C(F)(F)F)cc1OCc1ccc(F)cc1 [Compound 5i] |  | > 100 |  |
| COc1ccc(/C=C2\C(=O)N(c3ccc(C(=O)O)cc3)N=C2C(F)(F)F)cc1OCc1ccc(F)cc1 [Compound 5m] |  | > 100 |  |
| COc1ccc(/C=C2\C(=O)N(c3cccc(Br)c3)N=C2OC(C)=O)cc1OCc1ccc(F)cc1 [Compound 6e] |  | > 100 |  |
